Results as given in patent publication US20250228775A1, “ETHANOLIC RESINIFERATOXIN CONCENTRATE” (Gruenenthal GmbH, priority 2024, published 2025).

Assays:
[1] = tested on: chronic osteoarthritic knee joint pain; assay: Randomized, double-blind, placebo-controlled, single-dose trial of intraarticular Resiniferatoxin (Example 3); assay type: in vivo, human; conditions: for subjects with severe adverse events: none considered related to investigational medicinal product or Ropivacaine
Protocol: The primary objective of this study was to compare the analgesic effects of single intraarticular injections of Resiniferatoxin (100 or 400 ng) compared to placebo, at 3 and 6 months postinjection, in participants with chronic osteoarthritic knee joint pain. Secondary objectives were to evaluate the analgesic effects of Resiniferatoxin versus placebo in terms of a responder analysis (percentage of subjects achieving ≥50% or ≥70% reduction in visual analog scale pain score) and changes in Western Ontario and McMaster Universities Arthritis Index (WOMAC) total and subscale scores (pain, physical function and stiffness). Safety and injection site pain were also evaluated.
The study was conducted as a randomized, double-blind, placebo-controlled, single-dose trial of Resiniferatoxin. Eligible patients were aged 40 to 80 years with radiographic knee osteoarthritis (Kellgren-Lawrence Grade 2-4 in the last 3 years) and a baseline visual analog scale (0-100 mm) pain score ≥40 mm on motion in the target knee, with or without pain medication. 67 subjects were randomized to treatment with either Resiniferatoxin 100 ng (n=24) or 400 ng (n=23), or placebo (n=20), administered intraarticularly into the index knee. Intraarticular Ropivacaine (5 ml, 0.5%) was administered 15 mins before investigational medicinal product. Visual analog scale scores were used to evaluate pain on motion as the average of the last 2 days in a target knee between baseline and at 3 and 6 months post injection. Injection site pain was rated (visual analog scale) from baseline (−0.5 h) up to 3 h post intraarticular injections.

[2] = tested on: moderate to severe pain due to osteoarthritis of the knee; conditions: one-time intraarticular dose 5 to 30 μg; cited from earlier work
[3] = single intraarticular dose 100 ng or 400 ng

## C=C(C)[C@]12C[C@@H](C)[C@@]34O[C@](Cc5ccccc5)(O[C@@H]1[C@@H]3C=C(COC(=O)Cc1ccc(O)c(OC)c1)C[C@]1(O)C(=O)C(C)=C[C@@H]41)O2 [Resiniferatoxin, 4-hydroxy-3-methoxy-benzeneacetic acid, [(2S,3aR,3bS,6aR,9aR,9bR, 10R,11aR)-3a,3b,6,6a,9a,10,11,11a-octahydro-6a-hydroxy-8,10-dimethyl-11a-(1-methylethenyl)-7-oxo-2-(phenylmethyl)-7H-2,9b-epoxyazuleno[5,4-e]-1,3-benzodioxol-5-yl]methyl ester]
[1]; 100 ng and 400 ng, at both 3 and 6 months
  reduction in WOMAC total and subscale scores (pain, physical function and stiffness) compared to placebo: greater reduction in WOMAC total and subscale scores
[1]; 100 ng group (n=24)
  subjects with severe adverse events: 2 subjects
[1]; 100 ng or 400 ng intraarticular
  pain reduction (VAS pain on motion) compared to placebo: greater pain reduction than subjects receiving placebo
[1]; 100 ng or 400 ng intraarticular, VAS up to 3 h post injection
  injection site pain (procedural pain) compared to placebo: generally higher
[1]; 400 ng group (n=23)
  subjects with severe adverse events: 3 subjects
[1]; intention-to-treat population, first trial visit post-injection
  first visit at which reduction in VAS pain on motion was observed: ≤ 8 days
[1]; intention-to-treat population, last trial visit
  last visit until which reduction in VAS pain on motion lasted: ≥ 6 month
[1]; post-injection
  time of return of injection site pain to baseline: ≤ 3 h
[1]; [3]
  analgesic onset: within one week of administration
  duration of analgesia during follow-up: at least 3 months
  safety and tolerability: good safety profile and to have been well tolerated
[2]
  efficacy: Preliminary efficacy was also observed
